# Laboratory results as given in US8993593B2, “N-(4-(6-fluoro-3,4-dihydroisoquinolin-2(1H)-yl)-2,6-dimethylphenyl)-3,3-dimethylbutanamide as potassium channel modulators” (Valeant Pharmaceuticals International, priority 2006, dated 2015).
# pEC50: −log10 of the molar value.
# Legend:
# hERG = hERG (Homo sapiens, UniProt Q12809); experiment: in vitro
# KCNQ2 channels = biological target: T1, KCNQ2 channels (Homo sapiens, UniProt O43526); experiment: Potassium ion efflux, KCNQ2 channels expressed in CHO cells; format: cell-based
# T1 construct: expressed in transfected cells; host or cells: CHO cells
# Method: Using natively expressed M-currents present in differentiated pheochromocytoma (PC-12) cells and CHO cells transfected with KCNQ2 and hERG potassium channels, the in vitro activity of compound A on potassium ion efflux was determined.
# The EC50 values for retigabine and compound A on the activation of KCNQ2 channels expressed in CHO cells were determined on three separate occasions in triplicate.
# [1] = Rotarod test (motor impairment, acute toxicity); conditions: CF-1, in vivo, oral; behavioral rotarod model, mouse
# Method: Prior to MES testing, compound dosed mice are scrutinized for abnormal neurologic status as defined by motor impairment on a slowly turning (6 rpm) rotarod apparatus (Model 755, Series 8, IITC Life Sciences, Woodland Hills, Calif.). […] These measurements are done at the same time points as the MES assay. Untreated normal mice are able to maintain balance on the rotarod for at least one minute without falling. Median toxicity of a compound (TD50, the dose of a drug that results in motor impairment in 50% of animals) is determined.
# T1 sequence (O43526 whole entry): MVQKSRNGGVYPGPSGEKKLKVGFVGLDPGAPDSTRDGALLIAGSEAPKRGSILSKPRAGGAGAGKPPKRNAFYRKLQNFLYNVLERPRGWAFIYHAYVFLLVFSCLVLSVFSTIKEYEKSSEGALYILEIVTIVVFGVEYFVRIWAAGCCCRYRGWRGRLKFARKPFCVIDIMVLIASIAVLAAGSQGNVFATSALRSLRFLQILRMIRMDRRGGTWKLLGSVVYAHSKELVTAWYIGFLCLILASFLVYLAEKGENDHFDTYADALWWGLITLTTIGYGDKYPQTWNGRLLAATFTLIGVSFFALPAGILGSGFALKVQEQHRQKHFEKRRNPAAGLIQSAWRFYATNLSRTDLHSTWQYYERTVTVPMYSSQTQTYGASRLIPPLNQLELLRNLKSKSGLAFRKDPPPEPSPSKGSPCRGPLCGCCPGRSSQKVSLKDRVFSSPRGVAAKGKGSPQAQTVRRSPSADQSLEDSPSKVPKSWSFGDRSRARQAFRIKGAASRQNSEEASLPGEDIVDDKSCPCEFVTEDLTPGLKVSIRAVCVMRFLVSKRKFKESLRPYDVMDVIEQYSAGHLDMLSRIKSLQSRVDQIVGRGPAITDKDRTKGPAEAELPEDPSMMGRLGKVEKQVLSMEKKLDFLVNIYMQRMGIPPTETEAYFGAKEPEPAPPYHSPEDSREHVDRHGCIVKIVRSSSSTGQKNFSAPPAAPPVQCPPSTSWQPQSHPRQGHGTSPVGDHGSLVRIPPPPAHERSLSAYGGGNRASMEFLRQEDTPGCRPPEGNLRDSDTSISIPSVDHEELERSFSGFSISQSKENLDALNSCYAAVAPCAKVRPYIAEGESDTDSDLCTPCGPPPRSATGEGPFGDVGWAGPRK
# hERG, sequence (Q12809 whole entry): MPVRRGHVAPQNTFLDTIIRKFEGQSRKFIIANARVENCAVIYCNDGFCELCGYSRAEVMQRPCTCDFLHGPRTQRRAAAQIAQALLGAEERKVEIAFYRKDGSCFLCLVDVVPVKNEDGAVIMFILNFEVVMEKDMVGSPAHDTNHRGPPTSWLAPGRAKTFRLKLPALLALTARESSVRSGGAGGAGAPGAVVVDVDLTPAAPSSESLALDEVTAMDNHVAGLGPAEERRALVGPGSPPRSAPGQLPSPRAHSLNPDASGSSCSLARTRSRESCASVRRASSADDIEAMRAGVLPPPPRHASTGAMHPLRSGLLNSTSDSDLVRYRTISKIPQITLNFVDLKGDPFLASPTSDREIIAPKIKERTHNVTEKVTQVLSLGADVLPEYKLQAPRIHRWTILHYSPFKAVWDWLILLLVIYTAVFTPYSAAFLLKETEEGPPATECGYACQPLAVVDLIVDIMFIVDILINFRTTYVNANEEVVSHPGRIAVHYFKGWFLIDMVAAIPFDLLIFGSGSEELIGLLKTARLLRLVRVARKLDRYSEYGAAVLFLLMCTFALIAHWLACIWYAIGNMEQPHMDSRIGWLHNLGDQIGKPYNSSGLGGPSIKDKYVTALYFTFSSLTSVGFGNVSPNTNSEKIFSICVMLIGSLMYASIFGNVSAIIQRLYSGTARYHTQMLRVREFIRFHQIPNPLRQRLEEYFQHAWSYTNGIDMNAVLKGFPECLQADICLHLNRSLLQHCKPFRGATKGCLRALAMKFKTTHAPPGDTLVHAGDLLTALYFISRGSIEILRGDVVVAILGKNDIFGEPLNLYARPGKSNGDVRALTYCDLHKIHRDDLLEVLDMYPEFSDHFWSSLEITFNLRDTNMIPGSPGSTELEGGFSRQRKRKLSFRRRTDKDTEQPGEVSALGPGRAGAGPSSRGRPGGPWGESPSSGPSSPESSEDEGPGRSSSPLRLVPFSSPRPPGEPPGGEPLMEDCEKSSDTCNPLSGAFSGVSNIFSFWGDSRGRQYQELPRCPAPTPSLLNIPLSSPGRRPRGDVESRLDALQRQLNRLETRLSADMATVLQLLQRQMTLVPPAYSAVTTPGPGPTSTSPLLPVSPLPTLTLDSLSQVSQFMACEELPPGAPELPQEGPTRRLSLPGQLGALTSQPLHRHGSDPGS
smiles,measurement,setting,value
"Cc1cc(N2CCc3cc(F)ccc3C2)cc(C)c1NC(=O)CC(C)(C)C [compound A, N-[4-(6-fluoro-3,4-dihydro-1H-isoquinolin-2-yl)-2,6-dimethylphenyl]-3,3-dimethyl butanamide]",inhibition at 30 µM,hERG,-0.1%
same,pEC50,KCNQ2 channels,7.96
same,TD50 at 2 h,[1],12.6 mg/kg
